In ChEMBL document CHEMBL1201862, “PubChem BioAssay data set” (2004):
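The compound was tested at five concentrations on cells cultured in 96-well plates, with a 48-hour exposure period. Abbreviation: GI50, concentration required for 50% inhibition of growth.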 Activity calls are given as the source filed them. No stated cut-off is given here; in the data, active = GI50 up to about 1.1 µM and inactive = higher.

What was measured:
Assay in all cases: growth of human tumour cells (NCI), 48 h
A498 = test system: A498
CCRF-CEM = test system: CCRF-CEM
COLO 205 = test system: COLO 205
HCT-116 = test system: HCT-116
HL-60 = test system: HL-60
HOP-62 = test system: HOP-62
HT-29 = test system: HT-29
KM-20L2 = test system: KM-20L2
KM12 = test system: KM12
NCI-H226 = test system: NCI-H226
OVCAR-4 = test system: OVCAR-4
SF-295 = test system: SF-295
SK-MEL-2 = test system: SK-MEL-2
SK-OV-3 = test system: SK-OV-3
SN12C = test system: SN12C
SNB-19 = test system: SNB-19
UO-31 = test system: UO-31
LOX IMVI = test system: LOX IMVI

SMILES | GI50 (A498) | GI50 (CCRF-CEM) | GI50 (COLO 205) | GI50 (HCT-116) | GI50 (HL-60) | GI50 (HOP-62) | GI50 (HT-29) | GI50 (KM-20L2) | GI50 (KM12) | GI50 (NCI-H226) | GI50 (OVCAR-4) | GI50 (SF-295) | GI50 (SK-MEL-2) | GI50 (SK-OV-3) | GI50 (SN12C) | GI50 (SNB-19) | GI50 (UO-31) | GI50 (LOX IMVI)
N=c1oc2c(O)c(O)ccc2cc1C(N)=O | > 100 µM (inactive) | 21.6 µM (inactive) | 41.6 µM (inactive) | 51.1 µM (inactive) | > 10 µM (inactive) | > 100 µM (inactive) | > 100 µM (inactive) | > 100 µM (inactive) | > 100 µM (inactive) | > 100 µM (inactive) | 17.5 µM (inactive) | 33.6 µM (inactive) | 48.2 µM (inactive) | > 100 µM (inactive) | > 100 µM (inactive) | > 100 µM (inactive) | > 100 µM (inactive) | 
CN1C(=O)c2cccc3c([N+](=O)[O-])ccc(c23)C1=O | 2.65 µM (inactive) | 7.24 µM (inactive) | 7.26 µM (inactive) | 6.52 µM (inactive) |  | 12.1 µM (inactive) |  | 5.7 µM (inactive) | 4.94 µM (inactive) | 1.56 µM (inactive) | 13 µM (inactive) | 14.5 µM (inactive) | 10.8 µM (inactive) | 14.7 µM (inactive) | 12.4 µM (inactive) | 14.2 µM (inactive) | 13.7 µM (inactive) | 6.12 µM (inactive)
Cc1ccc(S(=O)(=O)ON/N=C2/C3OC3[C@@H]3CCCC[C@H]23)cc1 (stereo partly specified) |  | > 100 µM (inactive) | > 100 µM (inactive) |  | > 100 µM (inactive) | > 100 µM (inactive) | > 100 µM (inactive) | > 100 µM (inactive) | > 100 µM (inactive) | > 100 µM (inactive) | > 100 µM (inactive) | 1.19 µM (inactive) | > 100 µM (inactive) |  | > 100 µM (inactive) | > 100 µM (inactive) | > 100 µM (inactive) | 
O=C(O)/C=C/n1c2ccccc2c(=O)c2ccccc21 | > 100 µM (inactive) | > 100 µM (inactive) | > 100 µM (inactive) | > 100 µM (inactive) | > 100 µM (inactive) | > 100 µM (inactive) | > 100 µM (inactive) | > 100 µM (inactive) | > 100 µM (inactive) | > 100 µM (inactive) | > 100 µM (inactive) | > 100 µM (inactive) | > 100 µM (inactive) |  | > 100 µM (inactive) | > 100 µM (inactive) | > 100 µM (inactive) | > 100 µM (inactive)
Nc1ncnc2c1ncn2C1OC(CSC(F)F)C(O)C1O (stereo unspecified) | > 100 µM (inactive) | > 100 µM (inactive) | > 100 µM (inactive) | > 100 µM (inactive) | > 100 µM (inactive) | > 100 µM (inactive) | > 100 µM (inactive) | > 100 µM (inactive) | > 100 µM (inactive) | > 100 µM (inactive) | > 100 µM (inactive) | > 100 µM (inactive) | > 100 µM (inactive) | > 100 µM (inactive) | > 100 µM (inactive) |  | > 100 µM (inactive) | > 100 µM (inactive)
CCOC(=O)C1C(=O)C(=O)N2CCc3c([nH]c4ccccc34)C12 (stereo unspecified) | > 100 µM (inactive) | > 100 µM (inactive) | > 100 µM (inactive) | > 100 µM (inactive) | > 100 µM (inactive) | > 100 µM (inactive) | > 100 µM (inactive) | > 100 µM (inactive) | > 100 µM (inactive) |  | > 100 µM (inactive) | > 100 µM (inactive) | > 100 µM (inactive) | > 100 µM (inactive) | > 100 µM (inactive) | > 100 µM (inactive) | > 100 µM (inactive) | 
COc1ccc(/C(Cl)=C(\C=O)c2ccc(Br)cc2)cc1OC | 88.9 µM (inactive) |  | > 100 µM (inactive) |  | 17 µM (inactive) | 34.8 µM (inactive) | > 100 µM (inactive) | > 100 µM (inactive) | > 100 µM (inactive) | 19.5 µM (inactive) | > 100 µM (inactive) | 19.8 µM (inactive) | 16.5 µM (inactive) | > 100 µM (inactive) | > 100 µM (inactive) | 26.3 µM (inactive) | > 100 µM (inactive) | 18.3 µM (inactive)
O=S1(=O)CS(=O)(=O)OCCCCCO1 | > 100 µM (inactive) | > 100 µM (inactive) | > 100 µM (inactive) | > 100 µM (inactive) |  |  | > 100 µM (inactive) | > 100 µM (inactive) | > 100 µM (inactive) | > 100 µM (inactive) | > 100 µM (inactive) |  | > 100 µM (inactive) | > 100 µM (inactive) | > 100 µM (inactive) | > 100 µM (inactive) | > 100 µM (inactive) | > 100 µM (inactive)
C[N+]1(C)C/C(=C\c2ccc(O)cc2)C(=O)/C(=C/c2ccc(O)cc2)C1 | 85.1 µM (inactive) | 23.7 µM (inactive) | 47.1 µM (inactive) | 34 µM (inactive) | 19.5 µM (inactive) | > 100 µM (inactive) | > 100 µM (inactive) | 61.4 µM (inactive) | 45.1 µM (inactive) |  | > 100 µM (inactive) | 63.2 µM (inactive) |  | > 100 µM (inactive) | 18.5 µM (inactive) | > 100 µM (inactive) | > 100 µM (inactive) | 56.8 µM (inactive)
Cc1cn(C2CC(CCCO)C(CO)O2)c(=O)[nH]c1=O (stereo unspecified) | > 100 µM (inactive) |  | > 100 µM (inactive) | > 100 µM (inactive) | > 100 µM (inactive) | > 100 µM (inactive) | > 100 µM (inactive) | > 100 µM (inactive) | > 100 µM (inactive) |  | > 100 µM (inactive) | > 100 µM (inactive) | > 100 µM (inactive) | > 100 µM (inactive) | > 100 µM (inactive) | > 100 µM (inactive) | > 100 µM (inactive) | > 100 µM (inactive)
Cc1c(C(=O)c2ccccc2C(=O)O)c2ccccc2n1C | > 100 µM (inactive) | > 100 µM (inactive) |  | > 100 µM (inactive) | > 100 µM (inactive) | > 100 µM (inactive) | > 100 µM (inactive) | > 100 µM (inactive) | > 100 µM (inactive) | > 100 µM (inactive) | > 100 µM (inactive) | > 100 µM (inactive) | > 100 µM (inactive) | > 100 µM (inactive) |  |  | > 100 µM (inactive) | 
Cc1ccc(/C=C(\C#N)c2ccccc2)cc1 | > 100 µM (inactive) | > 100 µM (inactive) | > 100 µM (inactive) | > 100 µM (inactive) |  | > 100 µM (inactive) | > 100 µM (inactive) | > 100 µM (inactive) | > 100 µM (inactive) | > 100 µM (inactive) | > 100 µM (inactive) | > 100 µM (inactive) | > 100 µM (inactive) | > 100 µM (inactive) | > 100 µM (inactive) |  | > 100 µM (inactive) | > 100 µM (inactive)
CCOC(=O)[C@H]1Nc2ccc(Cl)cc2[C@H]2CCC[C@@H]12 |  |  | > 100 µM (inactive) | > 100 µM (inactive) |  | > 100 µM (inactive) | 36.7 µM (inactive) | > 100 µM (inactive) | > 100 µM (inactive) | > 100 µM (inactive) | 56.9 µM (inactive) | 55.3 µM (inactive) | > 100 µM (inactive) |  | > 100 µM (inactive) | > 100 µM (inactive) | 99.8 µM (inactive) | > 100 µM (inactive)
CN(C)CC/C(=N\Nc1c(F)c(F)c(F)c(F)c1F)c1ccccc1 | 74.5 µM (inactive) | 21.2 µM (inactive) | > 100 µM (inactive) | 86.9 µM (inactive) | 9.68 µM (inactive) | > 10 µM (inactive) | 35.8 µM (inactive) | 35.6 µM (inactive) | 48.5 µM (inactive) |  | 16.9 µM (inactive) | 38.5 µM (inactive) | 32.7 µM (inactive) | 3.32 µM (inactive) | 37.8 µM (inactive) | 54.1 µM (inactive) | 7.38 µM (inactive) | 32.7 µM (inactive)
OC1CC(O)O[C@H](c2ccccc2)C1 (stereo partly specified) | > 100 µM (inactive) | > 100 µM (inactive) | > 100 µM (inactive) | > 100 µM (inactive) | > 100 µM (inactive) | > 100 µM (inactive) | > 100 µM (inactive) | > 100 µM (inactive) | > 100 µM (inactive) | > 100 µM (inactive) | > 100 µM (inactive) | > 100 µM (inactive) |  |  | > 100 µM (inactive) | > 100 µM (inactive) | > 100 µM (inactive) | > 100 µM (inactive)
C[C@H]1[C@H](C)CC[C@]2(C(=O)O)CCC3(COC(=O)/C=C/c4ccc(O)cc4)C(=CCC4[C@@]5(C)CC[C@H](O)C(C)(C)C5CC[C@]43C)[C@H]12 (stereo partly specified) | 4.06 µM (inactive) | 3.84 µM (inactive) | 3.99 µM (inactive) | 3.62 µM (inactive) | 7.96 µM (inactive) | 7.82 µM (inactive) | 6.12 µM (inactive) | 4.83 µM (inactive) | 3.47 µM (inactive) | 7.91 µM (inactive) | 5.96 µM (inactive) | 3.72 µM (inactive) | 19.1 µM (inactive) | 1.63 µM (inactive) | 5.68 µM (inactive) | 5.11 µM (inactive) | 4.82 µM (inactive) | 5.24 µM (inactive)
Cc1c2cc[n+](C)cc2c(C)c2c1[nH]c1ccc(Oc3ccccc3)cc12 |  | 1.19 µM (inactive) | 1.1 µM (active) | 1.54 µM (inactive) |  | 0.578 µM (active) | 0.764 µM (active) | 1.14 µM (inactive) | 0.59 µM (active) | 0.492 µM (active) | 1.4 µM (inactive) | 0.311 µM (active) | 1.1 µM (active) | 1.39 µM (inactive) | 0.381 µM (active) | 0.67 µM (active) | 7.29 µM (inactive) | 2.09 µM (inactive)
